Measurements: publication PMC10303900, “Discovery of a New Chalcone-Trimethoxycinnamide Hybrid with Antimitotic Effect: Design, Synthesis, and Structure—Activity Relationship Studies” (Pharmaceuticals, 2023)
Like-named read-outs stand apart in the source and are kept apart here.

Assays:
MCF-7 [1] = settings: 48 h, cited from earlier work
HCT116 (HCT116 p53+/+) [2] = settings: 48 h, cited from earlier work
A375-C5 [3] = tested on: A375-C5; parameters: method as in Novais et al. [17]; settings: 48 h; ref Novais et al. [17]; cited from earlier work
[4] = parameters: method as in PMID 34885726; settings: used at 2×GI50; ref [17]; cited from earlier work
HFF-1 and HPAEpiC cells = tested on: HFF-1 and HPAEpiC cells; parameters: method as in PMID 34170069, PMID 34885726; settings: fibroblasts HFF-1 and HPAEpiC; ref [12],[17]; cited from earlier work
HPAEpiC [5] = tested on: HPAEpiC; parameters: method as in Novais et al. [17]; settings: 48 h, non-tumor cells; ref Novais et al. [17]; cited from earlier work
HCT116 cells [6] = experiment: Apoptosis detection via flow cytometry (Annexin V-FITC/PI); type: cell-based, human; settings: HCT116, 48 h, vs untreated or DMSO
Procedure: Double labeling with annexin V-FITC and propidium iodide dyes was used to detect cells going through apoptotic events, using a flow cytometer in order to obtain insights into the mechanism by which compounds 6, 7, and 13 generate antiproliferative activity against colorectal carcinoma cells. For that, HCT116 cells were exposed to each compound for 48 h.
To evaluate apoptotic cell death, the “Annexin V-FITC Apoptosis Detection Kit” (eBioscience, Vienna, Austria) was used according to the manufacturer’s instructions. Briefly, 1.2 × 10^5 cells/well were seeded into 6-well plates, and 24 h later, cells were treated with compounds 6, 7, and 13. After 48 h, floating and adherent cells were collected, pelleted via centrifugation (1000 rpm, 5 min), and suspended in binding buffer. Annexin V-FITC was added and incubated for 10 min, protected from light. Cells were washed and resuspended in binding buffer, and 20 μg/mL of propidium iodide (PI) was added. Fluorescence was assessed using the BD Accuri™ C6 Plus flow cytometer (BD Biosciences, Qume Drive, San Jose, CA, USA), and the data were analyzed with the BD Accuri TM C6 Plus software (version 1.0.27.1, San Jose, CA, USA). At least 20,000 events per sample were collected.

p53–MDM2 interaction [7] = target: T1, p53–MDM2 interaction (Homo sapiens, UniProt Q00987); experiment: Yeast targeted screening assay of p53–MDM2 interaction; settings: 10 μM, yeast cell-based assay, data not shown
T1 construct: expressed in transfected cells; host or cells: Saccharomyces cerevisiae strain CG379
Procedure: However, since CM-M345 (1) has been previously reported as a p53-MDM2 inhibitor by our research group, the effect of 10 μM of compounds 6, 7, and 13 on the p53–MDM2 interaction was analyzed using yeast cell-based assays.
Saccharomyces cerevisiae (strain CG379) expressing human wt p53 alone and combined with human MDM2 were obtained in previous works. For the expression of human proteins (routinely grown in minimal selective medium), cells were diluted to 0.05 OD600 in selective induction medium containing 2% (w/w) galactose, 1% (w/w) raffinose, 0.7% (w/w) yeast nitrogen base without amino acids from Difco (Quilaban, Sintra, Portugal), and all the amino acids required for yeast growth ([…]) except leucine and tryptophan. Yeast cells were incubated at 30 °C under continuous orbital shaking (200 rpm) with 10 µM compounds or 0.1% DMSO only, for approximately 42 h (time required by the control yeast, co-transformed with the empty vectors and incubated with DMSO only, to achieve 0.4 OD600). Yeast growth was analyzed by counting the number of colony-forming units (CFU) after 2 days of incubation at 30 °C on Sabouraud Dextrose Agar from Liofilchem (Frilabo, Porto, Portugal).

HCT116 cells [8] = experiment: Mitotic arrest / mitotic index by phase-contrast microscopy; type: cell-based, human; settings: HCT116, 24 h, phase contrast microscopy
Procedure: Disruption of cell cycle progression is considered one of the most common cytotoxic mechanisms of anticancer drugs. Moreover, the antimitotic effect of BP-M345 (2) has been previously reported. Therefore, compounds 6, 7, and 13 were tested for their capability to induce cell cycle arrest. HCT116 cells were exposed for 24 h to the compounds and then analyzed using phase contrast microscopy for morphological changes. Untreated and dimethyl sulfoxide (DMSO; solvent)-treated cells were used as negative controls. Cell exposure to nocodazole, an antimitotic agent, was used as a positive control. […] We thus calculated the mitotic index (MI), and observed a significant increase in MI in 7-treated cells (22.76 ± 4.30%) compared to the untreated (12.68 ± 1.98%) or DMSO-treated (12.81 ± 1.45%) (Figure 4c).
A total of 1.2 × 10^5 HCT-116 cells were grown in six-well dishes and treated for 24 h with 3.26 µM of compound 7. Cells treated with 1 µM nocodazole were used as a positive control for antimitotic activity. Untreated cells and cells treated with DMSO were included to exclude the cytotoxicity of the compound solvent. Mitotic index, and the percentage of mitotic cells over the total cell population were determined via cell-rounding under phase-contrast microscopy from at least ten random microscope fields.
For phase contrast microscopy images, a Nikon TE 2000-U microscope (Nikon, Amsterdam, The Netherlands) with a 10× objective was used, coupled to a DXM1200F digital camera with Nikon ACT-1 software (Melville, NY, USA). For fluorescence images, an Axio Observer Z.1 SD microscope (Carl Zeiss, Germany) was used, coupled to an AxioCam MR3, with the Plan Apochromatic 63×/NA 1.4 objective. The images were processed using ImageJ, version 1.51.

A375-C5 [9] = experiment: Sulforhodamine B (SRB) growth inhibition assay, melanoma cells; type: cell-based; settings: Homo sapiens, 48 h
Procedure: (§1) A sulforhodamine B (SRB) assay was performed to evaluate the in vitro growth inhibitory activity of all synthesized hybrids, as well as intermediates in the human tumor cell lines of melanoma (A375-C5), breast adenocarcinoma (MCF-7), and colorectal carcinoma (HCT116), as well as on the non-tumor Human Pulmonary Alveolar Epithelial cell line (HPAEpiC). The concentration inducing 50% cell growth inhibition (GI50), was calculated. […] The overall results prompt us to further investigate the mechanism behind the cytotoxic activities of compounds 6, 7, and 13 in colorectal tumor cells. Moreover, in silico studies were performed, aiming to screen for drug-likeness.
(§2) A375-C5 (melanoma) and MCF-7 (breast adenocarcinoma) cell lines were obtained from the European Collection of Cell Culture, UK, and were grown in RPMI-1640 medium (Roswell Park Memorial Institute, Biochrom, Cambridge, UK) with 5% inactivated FBS (fetal bovine serum, Biochrom). HCT-116 (colon adenocarcinoma) cells were grown in DMEM medium (Dulbecco’s Modified Eagle’s, Biochrom) with 5% inactivated FBS. The non-tumor human pulmonary alveolar epithelial cells (HPAEpiC) were obtained from ScienCell Research Laboratories and grown in DMEM medium supplemented with 10% FBS and 1% non-essential amino acids (Sigma-Aldrich Co., Saint Louis, MO, USA). All cell lines were maintained in a humidified incubator (Hera Cell, Heraeus, Hanau, Germany) at 37 °C and with 5% CO2, and cell viability was regularly monitored using the exclusion trypan blue dye.
(§3) A total of 5.0 × 10^4 A375-C5, MCF-7, and HCT-116 cells, or 6.0 × 10^4 HPAEpiC cells were seeded in 96-well plates and incubated at 37 °C and 5% CO2 to allow for cell attachment. After 24 h, cells were treated with two-fold serial dilutions of test compounds (0–150 µM), or with DMSO as the compound solvent. In parallel, cells in a time-zero (T0) plate, without treatment, were fixed with 50% (m/v) trichloroacetic acid (TCA, Merck Millipore, Darmstadt, Germany), for 1 h at 4 °C, and then washed with distilled water and left to dry. Forty-eight hours after compound treatment, cells were fixed with 50% TCA and stained with SRB (Sigma-Aldrich Co., Ltd., Gillingham, UK) for 30 min at room temperature, followed by 5 rounds of washing with 1% (v/v) acetic acid (Merck Milli-pore, Darmstadt, Germany). SRB–protein complexes were then solubilized with […] Tris buffer (Sigma-Aldrich Co., Ltd., Gillingham, UK) for 30 min, and the absorbance was measured at 515 nm in a microplate reader (Biotek Synergy 2, BioTek Instruments, Inc., Winooski, VT, USA). A dose-response curve was obtained for each cell line, and the concentration that caused 50% cell growth inhibition (GI50) was calculated.

MCF-7 [10] = experiment: SRB growth inhibition assay, breast adenocarcinoma cells; type: cell-based; settings: Homo sapiens, MCF7, 48 h
Procedure: as §1, §2, §3

HCT116 p53−/− = experiment: SRB growth inhibition assay, p53 knocked-out colorectal cells; type: cell-based, human; settings: for GI50: Homo sapiens, HCT-116, Table 2, 48 h
Procedure: as §3

HCT116 (HCT116 p53+/+) [11] = experiment: SRB growth inhibition assay, colorectal carcinoma cells; type: cell-based; settings: Homo sapiens, HCT-116
Procedure: as §1, §2, §3

HPAEpiC [12] = experiment: SRB growth inhibition assay, non-tumor pulmonary alveolar epithelial cells; type: cell-based; settings: Homo sapiens, Epithelial cell, 48 h
Procedure: as §1, §2, §3

[13] = tested on: A375-C5, MCF-7 and HCT116 cell lines; experiment: SRB growth inhibition, range over the tumor cell lines of Table 1; type: cell-based; settings: Homo sapiens; SAR discussion, values of Table 1
Procedure: Considering the antiproliferative effects on tumor cells of all the studied compounds (Table 1), some SAR considerations may be undertaken (Figure 2). […] Nevertheless, this effect is not observed for the flavone derivatives 15 and 16. […] Additionally, with the screening of the synthetic intermediates, some conclusions can also be inferred (Figure 2).
as §3

p53–MDM2 interaction [14] = target: T1, p53–MDM2 interaction; parameters: method as in doi:10.1016/j.arabjc.2016.04.015; settings: ref [16]; cited from earlier work
[15] = SRB, 48 h, read-out: GI50 HCT116
[16] = Table 2, 48 h, read-out: GI50 HCT116 p53+/+

T1 sequence (Q00987 whole entry): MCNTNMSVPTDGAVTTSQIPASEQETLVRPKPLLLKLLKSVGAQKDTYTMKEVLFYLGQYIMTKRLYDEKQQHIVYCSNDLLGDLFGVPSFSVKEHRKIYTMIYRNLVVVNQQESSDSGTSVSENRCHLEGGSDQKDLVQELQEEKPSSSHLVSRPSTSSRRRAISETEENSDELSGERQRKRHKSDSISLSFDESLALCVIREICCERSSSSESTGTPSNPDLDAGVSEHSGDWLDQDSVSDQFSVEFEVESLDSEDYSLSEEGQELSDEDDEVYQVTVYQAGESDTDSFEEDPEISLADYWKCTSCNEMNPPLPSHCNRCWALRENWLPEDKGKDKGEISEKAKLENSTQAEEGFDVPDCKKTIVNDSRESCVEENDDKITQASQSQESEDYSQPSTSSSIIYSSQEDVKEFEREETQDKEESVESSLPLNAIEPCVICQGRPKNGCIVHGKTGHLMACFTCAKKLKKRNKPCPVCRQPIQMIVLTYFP

| Compound | GI50 (MCF-7 [1]; ref Novais et al. [17]) [µM] | GI50 (HCT116 (HCT116 p53+/+) [2]; ref Moreira et al. [12]) [µM] | GI50 (A375-C5 [3]) [µM] | Mitotic index (MI) [4] [%] | Cytotoxicity in non-tumor cell lines (HFF-1 and HPAEpiC cells) | GI50 (HPAEpiC [5]) [µM] | Apoptosis induction (Annexin V-positive cells) (HCT116 cells [6]) | Effect on the p53–MDM2 interaction (reversal of the negative growth effect of MDM2 on p53) (p53–MDM2 interaction [7]) | Accumulation of bright and rounded (mitotic) cells (HCT116 cells [8]) | GI50 (A375-C5 [9]) [µM] | GI50 (MCF-7 [10]) [µM] | SI, selective index (GI50 of HCT116 p53−/−/GI50 of HCT116 p53+/+) (HCT116 p53−/−) | GI50 (HCT116 p53−/−) [µM] | GI50 (HCT116 (HCT116 p53+/+) [11]; [15]) [µM] | GI50 (HCT116 (HCT116 p53+/+) [11]; [16]) [µM] | GI50 (HPAEpiC [12]) [µM] | GI50 [13] [µM] | GI50 (MCF-7 [1]; ref Pereira et al. [16]) [µM] | GI50 (HCT116 (HCT116 p53+/+) [2]; ref Pereira et al. [16]) [µM] | Inhibition of the p53–MDM2 interaction in yeast-based assays (p53–MDM2 interaction [14]) |
| --- | --- | --- | --- | --- | --- | --- | --- | --- | --- | --- | --- | --- | --- | --- | --- | --- | --- | --- | --- | --- |
| COc1cc(/C=C2\COC/C(=C\c3cc(OC)c(OC)c(OC)c3)C2=O)cc(OC)c1OC [BP-M345 (2)] | 0.45 ± 0.06 | 0.17 ± 0.01 | 0.24 ± 0.01 | 29.8 ± 5.6 | low cytotoxicity | 1.07 ± 0.16 |  |  |  |  |  |  |  |  |  |  |  |  |  |  |
| CCCc1c(OCC(=O)Nc2cc(OC)c(OC)c(OC)c2)ccc(C(=O)/C=C/c2cc(OC)c(OC)c(OC)c2)c1O [Compound 13, (E)-2-(3-hydroxy-2-propyl-4-(3-(3,4,5-trimethoxyphenyl)acryloyl)phenoxy)-N-(3,4,5-trimethoxyphenyl)acetamide] |  |  |  |  |  |  | induces apoptotic tumor cell death | none of the tested compounds significantly reversed the negative inhibitory growth effect of MDM2 on p53 | not observed | 9.37 ± 0.9 | 18.8 ± 3.46 | 1.54 | 4.1 ± 0.5 | 2.66 ± 0.87 | 2.66 ± 0.87 | 10.8 ± 0.23 |  |  |  |  |
| CCCc1c(OCCNC(=O)OC(C)(C)C)ccc(C(=O)/C=C/c2cc(OC)c(OC)c(OC)c2)c1O [Compound 6, tert-butyl(E)-(2-(3-hydroxy-2-propyl-4-(3-(3,4,5-trimethoxyphenyl)acryloyl)phenoxy)ethyl)carbamate] |  |  |  |  |  |  | induces apoptotic tumor cell death | none of the tested compounds significantly reversed the negative inhibitory growth effect of MDM2 on p53 | not observed | 3.61 ± 1.11 | 39.8 ± 2.11 | 0.68 | 1.9 ± 0.3 | 2.81 ± 0.65 | 2.81 ± 0.65 | 9.6 ± 0.94 | 2.81 to 39.8 |  |  |  |
| CCCc1c(OC)ccc(C(=O)/C=C/c2cc(OC)c(OC)c(OC)c2)c1O [CM-M345 (1), reference compound] |  |  |  |  |  |  |  |  |  | 5.57 ± 0.06 |  | 1.31 |  |  |  | 6.1 ± 0.66 |  | 2.3 ± 0.1 | 2.6 ± 0.2 | inhibitor of the interaction |
